What was measured:
Assay in all cases: DiscoverX KinomeScreen competition binding assay (kinase selectivity panel)
[1] = biological target: T1, panel of ninety-seven kinases (Homo sapiens, UniProt Q13873); conditions: BMPR2; screened at 3000 nM
T1 construct: purchased DiscoverX; host or cells: E. coli (BL21-derived, T7 phage display) or HEK-293
Description: (§1) This has been investigated by testing atropisomer A-2 for off-target activity against a panel of ninety-seven kinases distributed across the kinome at a concentration of 3 μM using the DiscoverX KinomeScreen assay. The DiscoverX KinomeScreen assay is a site-directed competition binding assay which measures the binding affinity of a compound to a kinase, by use of a solid supported control compound which can bind or capture the kinases in solution. In the absence of a kinase-inhibitor test compound, all of the kinase will bind to the solid support. If a kinase-inhibitor test compound is added to the assay mix, the amount of kinase binding to the solid support will be reduced, the extent of reduction being dependent on the potency of the test compound as a kinase inhibitor. […] For most assays, kinase-tagged T7 phage strains were grown in parallel in 24-well blocks in an E. coli host derived from the BL21 strain. E. coli were grown to log-phase and infected with T7 phage from a frozen stock (multiplicity of infection=0.4) and incubated with shaking at 32° C. until lysis (90-150 minutes). The lysates were centrifuged (6,000×g) and filtered (0.2 μm) to remove cell debris. The remaining kinases were produced in HEK-293 cells and subsequently tagged with DNA for qPCR detection. Streptavidin-coated magnetic beads were treated with biotinylated small molecule ligands for 30 minutes at room temperature to generate affinity resins for kinase assays. The liganded beads were blocked with excess biotin and washed with blocking buffer (SeaBlock (Pierce), 1% BSA, 0.05% Tween 20, 1 mM DTT) to remove unbound ligand and to reduce non-specific phage binding. […] Test compounds were prepared as 40× stocks in 100% DMSO and directly diluted into the assay. All reactions were performed in polypropylene 384-well plates in a final volume of 0.02 ml. […] The beads were then re-suspended in elution buffer (1×PBS, 0.05% Tween 20, 0.5 μM non-biotinylated affinity ligand) and incubated at room temperature with shaking for 30 minutes. The kinase concentration in the eluates was measured by qPCR. Compounds that bind the kinase active site and directly (sterically) or indirectly (allosterically) prevent kinase binding to the immobilized ligand, will reduce the amount of kinase captured on the solid support. […] The strength of binding of the test molecule to the kinase can be expressed as the percent control (% Ctrl) The compound(s) were screened at 3000 nM concentration, and results for primary screen binding interactions are reported as ‘% Ctrl’, where lower numbers indicate stronger hits in the matrix on the following page(s). [formula] • negative control=DMSO (100% Ctrl) • positive control=control compound (0% Ctrl)

[2] = biological target: T2, panel of ninety-seven kinases (Homo sapiens, UniProt Q9BWU1); conditions: CDK19; screened at 3000 nM
T2 construct: purchased DiscoverX; host or cells: E. coli (BL21-derived, T7 phage display) or HEK-293
Description: as §1

[3] = biological target: T3, panel of ninety-seven kinases (Homo sapiens, UniProt O60674); conditions: JAK2; screened at 3000 nM
T3 construct: purchased DiscoverX; host or cells: E. coli (BL21-derived, T7 phage display) or HEK-293
Description: as §1

[4] = biological target: T4, panel of ninety-seven kinases (Homo sapiens, UniProt P53779); conditions: MAPK10; screened at 3000 nM
T4 construct: purchased DiscoverX; host or cells: E. coli (BL21-derived, T7 phage display) or HEK-293
Description: as §1

[5] = biological target: T5, panel of ninety-seven kinases (Homo sapiens, UniProt P52333); conditions: JAK3; screened at 3000 nM
T5 construct: purchased DiscoverX; host or cells: E. coli (BL21-derived, T7 phage display) or HEK-293
Description: as §1

[6] = biological target: T6, panel of ninety-seven kinases (Homo sapiens, UniProt Q8IYT8); conditions: ULK2; screened at 3000 nM
T6 construct: purchased DiscoverX; host or cells: E. coli (BL21-derived, T7 phage display) or HEK-293
Description: as §1

[7] = biological target: T7, panel of ninety-seven kinases (Homo sapiens, UniProt Q05397); conditions: PTK2; screened at 3000 nM
T7 construct: purchased DiscoverX; host or cells: E. coli (BL21-derived, T7 phage display) or HEK-293
Description: as §1

[8] = biological target: T8, panel of ninety-seven kinases (Homo sapiens, UniProt Q02156); conditions: PRKCE; screened at 3000 nM
T8 construct: purchased DiscoverX; host or cells: E. coli (BL21-derived, T7 phage display) or HEK-293
Description: as §1

[9] = biological target: T9, panel of ninety-seven kinases (Homo sapiens, UniProt P17612); conditions: PRKACA; screened at 3000 nM
T9 construct: purchased DiscoverX; host or cells: E. coli (BL21-derived, T7 phage display) or HEK-293
Description: as §1

[10] = biological target: T10, panel of ninety-seven kinases (Homo sapiens, UniProt P12931); conditions: SRC; screened at 3000 nM
T10 construct: purchased DiscoverX; host or cells: E. coli (BL21-derived, T7 phage display) or HEK-293
Description: as §1

[11] = biological target: T11, panel of ninety-seven kinases (Homo sapiens, UniProt Q9Y6R4); conditions: MAP3K4; screened at 3000 nM
T11 construct: purchased DiscoverX; host or cells: E. coli (BL21-derived, T7 phage display) or HEK-293
Description: as §1

[12] = biological target: T12, panel of ninety-seven kinases (Homo sapiens, UniProt Q86UX6); conditions: STK32C; screened at 3000 nM
T12 construct: purchased DiscoverX; host or cells: E. coli (BL21-derived, T7 phage display) or HEK-293
Description: as §1

[13] = biological target: T13, panel of ninety-seven kinases (Homo sapiens, UniProt O14965); conditions: AURKA; screened at 3000 nM
T13 construct: purchased DiscoverX; host or cells: E. coli (BL21-derived, T7 phage display) or HEK-293
Description: as §1

[14] = biological target: T14, panel of ninety-seven kinases (Homo sapiens, UniProt P42336); conditions: PIK3CA; screened at 3000 nM
T14 construct: purchased DiscoverX; host or cells: E. coli (BL21-derived, T7 phage display) or HEK-293
Description: as §1

[15] = biological target: T15, panel of ninety-seven kinases (Homo sapiens, UniProt P04629); conditions: NTRK1; screened at 3000 nM
T15 construct: purchased DiscoverX; host or cells: E. coli (BL21-derived, T7 phage display) or HEK-293
Description: as §1

[16] = biological target: T16, panel of ninety-seven kinases (Homo sapiens, UniProt Q9P1W9); conditions: PIM2; screened at 3000 nM
T16 construct: purchased DiscoverX; host or cells: E. coli (BL21-derived, T7 phage display) or HEK-293
Description: as §1

[17] = biological target: T17, panel of ninety-seven kinases (Homo sapiens, UniProt P43403); conditions: ZAP70; screened at 3000 nM
T17 construct: purchased DiscoverX; host or cells: E. coli (BL21-derived, T7 phage display) or HEK-293
Description: as §1

[18] = biological target: T18, panel of ninety-seven kinases (Homo sapiens, UniProt P36897); conditions: TGFBR1; screened at 3000 nM
T18 construct: purchased DiscoverX; host or cells: E. coli (BL21-derived, T7 phage display) or HEK-293
Description: as §1

[19] = biological target: T19, panel of ninety-seven kinases (Homo sapiens, UniProt P48730); conditions: CSNK1D; screened at 3000 nM
T19 construct: purchased DiscoverX; host or cells: E. coli (BL21-derived, T7 phage display) or HEK-293
Description: as §1

[20] = biological target: T20, panel of ninety-seven kinases (Homo sapiens, UniProt Q9BUB5); conditions: MKNK1; screened at 3000 nM
T20 construct: purchased DiscoverX; host or cells: E. coli (BL21-derived, T7 phage display) or HEK-293
Description: as §1

[21] = biological target: T21, panel of ninety-seven kinases (Homo sapiens, UniProt O96013); conditions: PAK4; screened at 3000 nM
T21 construct: purchased DiscoverX; host or cells: E. coli (BL21-derived, T7 phage display) or HEK-293
Description: as §1

[22] = biological target: T22, panel of ninety-seven kinases (Homo sapiens, UniProt Q96GD4); conditions: AURKB; screened at 3000 nM
T22 construct: purchased DiscoverX; host or cells: E. coli (BL21-derived, T7 phage display) or HEK-293
Description: as §1

T2 sequence (Q9BWU1 whole entry): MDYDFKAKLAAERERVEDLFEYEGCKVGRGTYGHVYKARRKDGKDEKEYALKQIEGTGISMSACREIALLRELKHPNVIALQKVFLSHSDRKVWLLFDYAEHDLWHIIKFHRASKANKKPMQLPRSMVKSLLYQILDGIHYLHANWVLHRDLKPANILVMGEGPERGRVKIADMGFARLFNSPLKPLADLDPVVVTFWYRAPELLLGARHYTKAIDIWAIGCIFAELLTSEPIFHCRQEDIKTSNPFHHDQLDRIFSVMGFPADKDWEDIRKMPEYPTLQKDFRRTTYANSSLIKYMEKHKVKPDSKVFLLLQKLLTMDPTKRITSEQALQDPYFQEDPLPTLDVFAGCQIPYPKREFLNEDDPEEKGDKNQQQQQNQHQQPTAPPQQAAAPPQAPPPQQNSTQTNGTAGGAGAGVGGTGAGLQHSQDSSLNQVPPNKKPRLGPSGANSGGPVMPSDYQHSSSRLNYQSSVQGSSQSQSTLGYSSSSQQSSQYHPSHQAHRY
T7 sequence (Q05397 whole entry): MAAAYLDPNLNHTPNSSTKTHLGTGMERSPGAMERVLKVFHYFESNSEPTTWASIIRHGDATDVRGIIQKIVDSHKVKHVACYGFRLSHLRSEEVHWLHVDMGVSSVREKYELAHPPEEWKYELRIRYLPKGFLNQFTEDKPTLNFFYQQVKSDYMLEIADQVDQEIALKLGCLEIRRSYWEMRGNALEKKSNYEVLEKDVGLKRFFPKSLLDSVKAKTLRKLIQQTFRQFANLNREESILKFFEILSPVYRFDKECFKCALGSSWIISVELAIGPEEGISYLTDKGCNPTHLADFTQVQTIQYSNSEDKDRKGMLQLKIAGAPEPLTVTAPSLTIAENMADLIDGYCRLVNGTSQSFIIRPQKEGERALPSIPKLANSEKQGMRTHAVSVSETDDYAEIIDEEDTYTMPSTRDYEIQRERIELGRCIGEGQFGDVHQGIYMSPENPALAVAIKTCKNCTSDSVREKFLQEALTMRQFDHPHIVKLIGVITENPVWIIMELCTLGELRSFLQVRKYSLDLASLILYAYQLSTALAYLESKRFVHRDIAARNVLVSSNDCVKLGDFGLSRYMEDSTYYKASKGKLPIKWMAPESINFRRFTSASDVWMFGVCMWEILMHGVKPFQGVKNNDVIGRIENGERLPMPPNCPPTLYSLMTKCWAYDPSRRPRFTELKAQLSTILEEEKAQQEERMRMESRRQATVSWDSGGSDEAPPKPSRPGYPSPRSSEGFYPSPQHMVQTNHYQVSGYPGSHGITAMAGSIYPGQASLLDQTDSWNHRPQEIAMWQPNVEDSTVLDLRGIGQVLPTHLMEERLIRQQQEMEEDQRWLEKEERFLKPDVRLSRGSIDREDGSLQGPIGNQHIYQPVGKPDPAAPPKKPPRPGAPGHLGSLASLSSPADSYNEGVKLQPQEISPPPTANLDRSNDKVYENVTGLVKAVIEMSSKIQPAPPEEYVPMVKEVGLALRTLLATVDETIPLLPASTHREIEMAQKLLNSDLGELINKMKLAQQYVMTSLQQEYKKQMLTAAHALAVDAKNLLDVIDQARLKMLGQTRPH
T20 sequence (Q9BUB5 whole entry): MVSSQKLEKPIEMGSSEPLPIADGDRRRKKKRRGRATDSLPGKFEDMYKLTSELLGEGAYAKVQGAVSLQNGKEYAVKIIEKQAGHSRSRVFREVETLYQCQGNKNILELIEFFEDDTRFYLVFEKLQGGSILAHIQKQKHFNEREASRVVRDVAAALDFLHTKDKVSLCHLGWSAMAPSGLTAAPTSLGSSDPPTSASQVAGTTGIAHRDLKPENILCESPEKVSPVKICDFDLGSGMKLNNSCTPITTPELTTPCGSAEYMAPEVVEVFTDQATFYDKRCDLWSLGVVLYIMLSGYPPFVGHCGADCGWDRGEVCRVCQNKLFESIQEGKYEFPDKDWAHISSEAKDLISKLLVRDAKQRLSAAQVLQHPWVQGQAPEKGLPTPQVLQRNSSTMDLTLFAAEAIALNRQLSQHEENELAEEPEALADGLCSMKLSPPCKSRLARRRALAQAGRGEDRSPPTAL
T4 sequence (P53779 whole entry): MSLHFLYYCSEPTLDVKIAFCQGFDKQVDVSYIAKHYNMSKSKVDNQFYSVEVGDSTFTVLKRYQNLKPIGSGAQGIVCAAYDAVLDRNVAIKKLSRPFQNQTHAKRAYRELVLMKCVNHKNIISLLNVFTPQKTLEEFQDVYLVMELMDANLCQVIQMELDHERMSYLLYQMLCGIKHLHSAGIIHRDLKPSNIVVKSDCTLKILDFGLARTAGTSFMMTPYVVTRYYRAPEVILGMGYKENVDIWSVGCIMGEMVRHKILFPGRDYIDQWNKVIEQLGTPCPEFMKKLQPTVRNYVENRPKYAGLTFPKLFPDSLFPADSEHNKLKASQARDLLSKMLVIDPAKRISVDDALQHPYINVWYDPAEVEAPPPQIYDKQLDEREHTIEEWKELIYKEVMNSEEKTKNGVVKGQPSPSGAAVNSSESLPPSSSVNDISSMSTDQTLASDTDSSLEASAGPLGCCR
T1 sequence (Q13873 27-1038): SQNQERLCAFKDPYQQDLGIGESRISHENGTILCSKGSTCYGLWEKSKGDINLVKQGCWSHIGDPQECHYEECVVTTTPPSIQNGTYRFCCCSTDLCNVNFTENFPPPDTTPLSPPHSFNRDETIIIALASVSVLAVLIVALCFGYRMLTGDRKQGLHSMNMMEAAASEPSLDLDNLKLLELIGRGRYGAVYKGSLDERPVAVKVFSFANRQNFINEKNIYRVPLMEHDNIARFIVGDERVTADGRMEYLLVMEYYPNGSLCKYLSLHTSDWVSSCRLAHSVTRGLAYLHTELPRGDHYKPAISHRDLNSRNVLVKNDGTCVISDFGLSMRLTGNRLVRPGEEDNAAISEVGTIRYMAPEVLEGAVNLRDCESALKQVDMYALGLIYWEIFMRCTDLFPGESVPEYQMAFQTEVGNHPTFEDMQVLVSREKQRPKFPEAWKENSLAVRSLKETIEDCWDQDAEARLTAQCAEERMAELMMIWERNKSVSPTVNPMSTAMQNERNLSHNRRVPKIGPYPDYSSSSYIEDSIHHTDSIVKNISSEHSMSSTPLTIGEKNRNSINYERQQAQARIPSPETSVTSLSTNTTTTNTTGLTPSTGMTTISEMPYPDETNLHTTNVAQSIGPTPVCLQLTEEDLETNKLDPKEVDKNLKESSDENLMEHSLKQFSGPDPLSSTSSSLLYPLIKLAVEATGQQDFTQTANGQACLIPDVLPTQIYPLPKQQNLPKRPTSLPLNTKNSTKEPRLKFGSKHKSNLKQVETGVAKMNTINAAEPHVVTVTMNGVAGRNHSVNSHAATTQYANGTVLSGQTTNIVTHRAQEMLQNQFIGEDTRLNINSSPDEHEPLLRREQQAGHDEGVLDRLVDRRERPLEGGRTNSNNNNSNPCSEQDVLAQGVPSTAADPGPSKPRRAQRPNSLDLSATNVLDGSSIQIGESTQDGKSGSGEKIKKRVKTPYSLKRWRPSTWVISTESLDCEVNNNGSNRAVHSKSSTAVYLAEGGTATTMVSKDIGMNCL
T17 sequence (P43403 whole entry): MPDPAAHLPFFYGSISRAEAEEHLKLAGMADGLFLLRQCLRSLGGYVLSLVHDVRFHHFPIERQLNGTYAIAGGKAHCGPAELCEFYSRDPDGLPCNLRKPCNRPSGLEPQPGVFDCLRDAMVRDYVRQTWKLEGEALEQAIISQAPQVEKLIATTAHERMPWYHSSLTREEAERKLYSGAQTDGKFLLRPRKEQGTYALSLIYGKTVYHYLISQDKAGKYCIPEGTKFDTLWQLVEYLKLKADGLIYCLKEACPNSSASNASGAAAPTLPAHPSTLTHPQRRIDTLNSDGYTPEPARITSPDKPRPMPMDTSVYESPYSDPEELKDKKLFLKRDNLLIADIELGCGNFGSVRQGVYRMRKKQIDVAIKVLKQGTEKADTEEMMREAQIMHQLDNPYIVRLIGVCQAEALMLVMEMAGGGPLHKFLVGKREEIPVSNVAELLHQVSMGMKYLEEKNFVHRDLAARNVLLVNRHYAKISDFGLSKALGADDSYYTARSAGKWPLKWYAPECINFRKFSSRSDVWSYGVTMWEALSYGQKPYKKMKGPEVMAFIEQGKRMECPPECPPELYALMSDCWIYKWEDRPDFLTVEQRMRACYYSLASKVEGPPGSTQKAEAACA
T10 sequence (P12931 whole entry): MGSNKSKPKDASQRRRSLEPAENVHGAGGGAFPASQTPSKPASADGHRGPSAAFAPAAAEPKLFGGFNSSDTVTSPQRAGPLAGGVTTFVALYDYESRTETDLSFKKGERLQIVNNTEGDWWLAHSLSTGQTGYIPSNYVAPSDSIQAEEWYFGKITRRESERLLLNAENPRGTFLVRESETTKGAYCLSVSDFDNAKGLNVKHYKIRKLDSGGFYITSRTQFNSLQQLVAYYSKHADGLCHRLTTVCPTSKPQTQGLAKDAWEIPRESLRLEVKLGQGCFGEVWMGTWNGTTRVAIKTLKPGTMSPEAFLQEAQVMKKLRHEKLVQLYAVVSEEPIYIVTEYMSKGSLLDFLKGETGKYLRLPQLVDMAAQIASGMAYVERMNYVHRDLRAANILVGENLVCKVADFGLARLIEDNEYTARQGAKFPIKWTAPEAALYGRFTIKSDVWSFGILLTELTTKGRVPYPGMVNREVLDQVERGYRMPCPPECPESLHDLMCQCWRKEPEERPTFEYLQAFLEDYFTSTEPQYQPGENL
T16 sequence (Q9P1W9 whole entry): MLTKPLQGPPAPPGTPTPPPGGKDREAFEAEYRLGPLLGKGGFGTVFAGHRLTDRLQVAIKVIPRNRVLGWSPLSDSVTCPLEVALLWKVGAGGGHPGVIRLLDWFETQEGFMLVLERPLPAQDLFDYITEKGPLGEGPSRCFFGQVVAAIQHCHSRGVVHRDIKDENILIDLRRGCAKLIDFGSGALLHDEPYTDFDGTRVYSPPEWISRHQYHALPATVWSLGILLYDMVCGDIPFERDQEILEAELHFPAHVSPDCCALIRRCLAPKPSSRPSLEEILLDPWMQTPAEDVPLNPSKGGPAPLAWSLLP

% Ctrl @ 3 μM [1]: 82 % Ctrl | % Ctrl @ 3 μM [2]: 81 % Ctrl | % Ctrl @ 3 μM [3]: 80 % Ctrl | % Ctrl @ 3 μM [4]: 93 % Ctrl | % Ctrl @ 3 μM [5]: 100 % Ctrl | % Ctrl @ 3 μM [6]: 93 % Ctrl | % Ctrl @ 3 μM [7]: 98 % Ctrl | % Ctrl @ 3 μM [8]: 99 % Ctrl | % Ctrl @ 3 μM [9]: 100 % Ctrl | % Ctrl @ 3 μM [10]: 100 % Ctrl | % Ctrl @ 3 μM [11]: 93 % Ctrl | % Ctrl @ 3 μM [12]: 100 % Ctrl | % Ctrl @ 3 μM [13]: 98 % Ctrl | % Ctrl @ 3 μM [14]: 100 % Ctrl | % Ctrl @ 3 μM [15]: 100 % Ctrl | % Ctrl @ 3 μM [16]: 100 % Ctrl | % Ctrl @ 3 μM [17]: 92 % Ctrl | % Ctrl @ 3 μM [18]: 95 % Ctrl | % Ctrl @ 3 μM [19]: 91 % Ctrl | % Ctrl @ 3 μM [20]: 92 % Ctrl | % Ctrl @ 3 μM [21]: 100 % Ctrl | % Ctrl @ 3 μM [22]: 84 % Ctrl
SMILES: CN(C)CCNC(=O)c1ccc(-c2ccc(-c3ccc(Cl)cc3)n2-c2ccccc2C(F)(F)F)cc1 (single isomer, unassigned) [Atropisomer A-2]

Reference: US12637424B2, “Pharmaceutical salt of an arylpyrrole derivative” (SENTINEL ONCOLOGY LIMITED, priority 2020, dated 2026)
